Measured values: US6150414A, “Compositions and methods for treating viral infections” (priority 1992, dated 2000)
“And” between values parts separate entries of the source, which are not always exact repeats. Equal values may be shown once. Read-outs that look alike come from different tables or passages of the source.

Experiments:
Friend Leukemia Virus [1] = experiment: In vivo inhibition of Friend Leukemia Virus splenomegaly, intravenous 1-2 hours post infection (Example 10); parameters: species or system mice; conditions: Mus musculus, read-out: EC50 for FV-induced splenomegaly
Description: (3) In vivo inhibition of Friend Leukemia Virus Splenomegaly performed as described in Example 1 above except that the compounds were administered intravenously 1-2 hours post infection.
(§1) The results presented above in Table IX are presented as EC50 concentrations. These are the effective concentrations which inhibit 50% of the viruses in micromolar concentrations.

retroviruses (virions) = experiment: Direct inactivation of retroviruses (virions) in vitro (Example 10); format: biochemical, Radiation Leukemia Virus; conditions: Table IX
Description: (§2) Supernatants (10 ml/tube) from B10.T(6R) cells (Meruelo et al. J. Exp. Med. 147: 470-487, 1978) chronically infected with Radiation Leukemia Virus (RadLV) were obtained by centrifugation of cells in culture at 4° C., 3500 rpm for 15 minutes. The top 2/3 of the supernatant were removed and aliquots were incubated for 30 minutes on ice with the indicated amounts of hypericin or protohypericin. […] Thereafter, supernatants were centrifuged at 100,000×g using a TI70 rotor (Beckman Instruments) for 1 hour at 4° C. The pellet was […] and analyzed for reverse transcriptase activity as follows.
(§3) The reverse transcriptase assay was performed in a volume of 100 microliters containing the following components:
(1) Direct inactivation of retroviruses in vitro, performed as in Example 3 above;
as §1

Friend Leukemia Virus [2] = experiment: Inhibition of Friend Leukemia Virus-induced splenomegaly in mice, compounds intraperitoneally 24 hours after virus (Example 1(a)); format: in vivo, BALB/c mice; parameters: Actual Spleen Weight / Average Spleen Weight: unit not given here; conditions: Table III; for inhibition in vivo at 0.1 mg / inhibition in vivo at 0.05 mg / inhibition in vivo at 0.2 mg: Mus musculus, ip; for Pooled Average % Inhibition: pooled over 50, 100, 200, 2 × 100 micrograms
From the text: The effects of compositions according to the present invention on infection of mammals with Friend Leukemia Virus (FV) were examined.
Friend Leukemia Virus is an aggressive retrovirus which induces an acute erythroleukemia in sensitive strains of mice such as BALB/c and NIH swiss mice as described in Friend, C. J., Exp. Med. 105: 307-324, 1957; Friend, C. et al. Proc. Natl. Acad. Sci. USA 68: 378-383, 1971; Friend, C. et al. Natl. Cancer Inst. Mongr. 22: 508-552, 1966. The malignant transformation is the result of the combined activities of the Spleen Focus Forming Virus (SFFV) and the ecotropic Murine Friend Leukemia Helper Virus (F-MuLV). The acute erythroleukemia is characterized by hepatosplenomegaly (a marked increase in the size of the spleen and liver) and a severe anemia.
Friend Leukemia Virus was prepared by homogenizing the enlarged spleen of a mouse previously infected with FV, 10 days after intravenous virus injection. The spleen was homogenized in phosphate buffered saline in a volume equal to ten times the weight of the isolated spleen.
(§4) The effects of compositions according to the present invention on the increase in spleen size (splenomegaly) of BALB/c mice (Jackson Labs, Bar Harbor, ME) was examined. In these experiments, the virus (10^6 focus forming units--FFU) was inoculated intravenously and 100 micrograms of the compounds indicated in Table II were administered to the mice intraperitoneally 24 hours later. Each compound was administered once to two mice. The animals were sacrificed ten days later and their spleens weighed.
The present assay has been developed from similar assays using hypericin or pseudohypericin and employing higher numbers of experimental animals per group (e.g. 4 animals). It was discovered however that the specificity and sensitivity of this assay are such that an experimental group of two animals is of more than adequate predictive value.
(§5) As used in Table II (and subsequent Tables of this Example l(a) and (b), "average percent inhibition" is calculated as follows: [formula] wherein "ASWNC" designates "average spleen weight of negative control"; "ASWE" designates "average spleen weight of experimental (treated) subject"; and "ASWPC" designates "average spleen weight of positive control". Average spleen weight is the numerical average of spleen weights of each experimental group (in Table II each such group includes two members).
In these experiments, the virus (10^6 focus forming units--FFU) was inoculated intravenously, and the indicated doses of the antiviral compounds of this invention were administered to the BALB/c mice intraperitoneally 24 hours later. The animals were then sacrificed ten days later and their spleens weighed.
Pseudohypericin was diluted in phosphate buffered saline with 1% ethanol.
An expanded series of experiments was next performed in which various concentrations (i.e. 50, 100, 200 and 2×100, i.e., 100 micrograms administered twice) of a different set of PAC compounds (numbers 16-29 and 30-36 in Table III below) were administered intraperitoneally each according to the same protocol described above. Compounds 16-29 all had 3-5 fused, aromatic rings and no side groups except for oxygen or hydroxyl groups, whereas compounds 30-36 all had 3 fused aromatic rings and side chains selected from the group of oxygen, hydroxyl and methyl.
When 2 doses of the compounds were given, the second dose was administered 24-48 hours after the first injection. The animals were infected and splenomegaly determined as above for the compounds in Table II. In Table III, "pooled average percent inhibition" is calculated by adding the average percent inhibition for each experiment with the same compound and dividing the sum by the number of experiments (i.e. the number 4). […]

[3] = target: T1, Radiation Leukemia Virus reverse transcriptase (Radiation murine leukemia virus, UniProt P11227); experiment: Radiation Leukemia Virus reverse transcriptase assay, supernatants from infected AQR cells (Examples 4 and 9); format: biochemical; conditions: for CPM: replicate
T1 construct: the reverse transcriptase of Radiation Leukemia Virus; endogenous in cells
Description: as §2, §3
The antiviral activity of HHA was tested using AQR (Bach and Meruelo, J. Exp. Med. 160:270-285, 1984) cells chronically infected with Radiation Leukemia Virus in the reverse transcriptase assay as described in Example 3 above.
The assays were conducted using the same procedure as in Example 3 above, using supernatants from infected AQR cells.

Friend Virus = experiment: Friend Virus-induced splenomegaly, WIS compounds (Example 8); format: in vivo, mice; conditions: Table VII; for Actual Spleen Weight: single animal
Description: as §4, §5
The AAB compounds whose synthesis is described above were assayed for antiviral activity. WIS-2, -3, -4, -5 and -6 were tested to determine their biological effects on Friend Virus-induced splenomegaly using the procedure and technique set forth in Example 1 above. The assay results (three mice per group were tested each at different concentrationss of the active composition except for the PBS-negative control wherein two animals per group were used) are reported in Table VII below.

O=C1c2ccccc2Cc2ccccc21 [Compound 30, Anthrone]
EC50 (Friend Leukemia Virus [1]; i.v. 1-2 hours post infection, Table IX): 267 µM | EC50 (retroviruses (virions)): > 51 µM | inhibition in vivo at 0.1 mg (Friend Leukemia Virus [2]; dose 2 × 100 (micrograms) i.p., read-out: Average Perdosage % Inhibition): 57% | inhibition in vivo at 0.05 mg (Friend Leukemia Virus [2]; dose 50 (micrograms) i.p., read-out: Average Perdosage % Inhibition): 31% | inhibition in vivo at 0.1 mg (Friend Leukemia Virus [2]; dose 100 (micrograms) i.p., read-out: Average Perdosage % Inhibition): 63% | inhibition in vivo at 0.2 mg (Friend Leukemia Virus [2]; dose 200 (micrograms) i.p., read-out: Average Perdosage % Inhibition): 62% | Average Spleen Weight (Friend Leukemia Virus [2]; dose 2 × 100 (micrograms) i.p.): 0.9878 | Average Spleen Weight (Friend Leukemia Virus [2]; dose 50 (micrograms) i.p.): 1.4953 | Average Spleen Weight (Friend Leukemia Virus [2]; dose 100 (micrograms) i.p.): 0.8790 | Average Spleen Weight (Friend Leukemia Virus [2]; dose 200 (micrograms) i.p.): 0.9092 | Pooled Average % Inhibition (Friend Leukemia Virus [2]): 53%

O=C1c2ccccc2C(=O)c2cc(CO)ccc21 [Compound 35, 2-(hydroxymethyl)-anthraquinone]
EC50 (Friend Leukemia Virus [1]): 145 µM | EC50 (retroviruses (virions)): > 41 µM | inhibition in vivo at 0.1 mg (Friend Leukemia Virus [2]; read-out: Average Perdosage % Inhibition, dose 2 × 100 (micrograms) i.p.): 75% | inhibition in vivo at 0.05 mg (Friend Leukemia Virus [2]; read-out: Average Perdosage % Inhibition, dose 50 (micrograms) i.p.): 62% | inhibition in vivo at 0.1 mg (Friend Leukemia Virus [2]; read-out: Average Perdosage % Inhibition, dose 100 (micrograms) i.p.): 64% | inhibition in vivo at 0.2 mg (Friend Leukemia Virus [2]; read-out: Average Perdosage % Inhibition, dose 200 (micrograms) i.p.): 77% | Average Spleen Weight (Friend Leukemia Virus [2]; dose 2 × 100 (micrograms) i.p.): 0.6575 | Average Spleen Weight (Friend Leukemia Virus [2]; dose 50 (micrograms) i.p.): 0.8921 | Average Spleen Weight (Friend Leukemia Virus [2]; dose 100 (micrograms) i.p.): 0.8615 | Average Spleen Weight (Friend Leukemia Virus [2]; dose 200 (micrograms) i.p.): 0.6086 | Pooled Average % Inhibition (Friend Leukemia Virus [2]): 70%

CC(=O)Oc1cc(C)c2c3c(C)cc(OC(C)=O)c4c(=O)c5c(OC(C)=O)cc(OC(C)=O)c6c7c(OC(C)=O)cc(OC(C)=O)c8c(=O)c1c2c(c87)c(c43)c56 [HHA, Hypericin hexaacetate]
EC50 (Friend Leukemia Virus [1]): > 199 µM | EC50 (retroviruses (virions)): 12.9 µM | Average CPM ([3]; 0.05 micrograms, Table VI): 466,981 CPM | CPM ([3]; 0.05 micrograms, Table VI): 441,410 CPM and 492,552 CPM | Average CPM ([3]; 0.1 micrograms, Table VI): 202,454 CPM | Average percent inhibition ([3]; 0.1 micrograms, Table VI): 54.8% | CPM ([3]; 0.1 micrograms, Table VI): 208,882 CPM and 196,026 CPM | Average CPM ([3]; 0.5 micrograms, Table VI): 501,386 CPM | CPM ([3]; 0.5 micrograms, Table VI): 518,336 CPM and 484,356 CPM | Average CPM ([3]; 1 microgram, Table VI): 451,634 CPM | CPM ([3]; 1 microgram, Table VI): 401,306 CPM and 501,962 CPM | Average CPM ([3]; 5 micrograms, Table VI): 205,891 CPM | Average percent inhibition ([3]; 5 micrograms, Table VI): 54.1% | CPM ([3]; 5 micrograms, Table VI): 221,098 CPM and 190,604 CPM | Average CPM ([3]; 10 micrograms, Table VI): 91,440 CPM | Average percent inhibition ([3]; 10 micrograms, Table VI): 79.6% | CPM ([3]; 10 micrograms, Table VI): 96,654 CPM and 86,226 CPM | Average CPM ([3]; 50 micrograms, Table VI): 5,305 CPM | Average percent inhibition ([3]; 50 micrograms, Table VI): 98.8% | CPM ([3]; 50 micrograms, Table VI): 5,236 CPM and 5,374 CPM | Average CPM ([3]; 100 micrograms, Table VI): 2,545 CPM | Average percent inhibition ([3]; 100 micrograms, Table VI): 99.4% | CPM ([3]; 100 micrograms, Table VI): 2,750 CPM and 2,340 CPM | inhibition of RadLV reverse transcriptase activity ([3]; Example 4): about as active a protohypericin in inhibiting the RadLV reverse transcriptase activity

CC(=O)Oc1cc(O)c2c(=O)c3c(O)cc(C)c4c5c(C)cc(O)c6c(=O)c7c(O)cc(OC(C)=O)c8c1c2c(c34)c(c65)c78 [WIS-6, hypericin diacetate]
EC50 (Friend Leukemia Virus [1]): > 255 µM | EC50 (retroviruses (virions)): 0.85 µM | Average CPM ([3]; 0.05 micrograms, Table VIII): 190,506 CPM | CPM ([3]; 0.05 micrograms, Table VIII): 195,374 CPM and 185,638 CPM | Average CPM ([3]; 0.1 micrograms, Table VIII): 389,388 CPM | CPM ([3]; 0.1 micrograms, Table VIII): 188,378 CPM and 590,398 CPM | Average CPM ([3]; 0.5 micrograms, Table VIII): 161,570 CPM | CPM ([3]; 0.5 micrograms, Table VIII): 116,590 CPM and 206,550 CPM | Average CPM ([3]; 1 microgram, Table VIII): 153,363 CPM | CPM ([3]; 1 microgram, Table VIII): 124,996 CPM and 181,730 CPM | Average CPM ([3]; 2 micrograms, Table VIII): 94,199 CPM | CPM ([3]; 2 micrograms, Table VIII): 96,562 CPM and 91,836 CPM | Average CPM ([3]; 5 micrograms, Table VIII): 90,273 CPM | CPM ([3]; 5 micrograms, Table VIII): 86,850 CPM and 93,696 CPM | Average CPM ([3]; 10 micrograms, Table VIII): 146,588 CPM | CPM ([3]; 10 micrograms, Table VIII): 178,026 CPM and 115,150 CPM | inhibition at 50 ng ([3]; 0.5 h, 0.05 micrograms, Table VIII): 76.7% | inhibition at 0.0001 mg ([3]; 0.5 h, 0.1 micrograms, Table VIII): 52.3% | inhibition at 0.0005 mg ([3]; 0.5 h, 0.5 micrograms, Table VIII): 80.2% | inhibition at 0.001 mg ([3]; 0.5 h, 1 microgram, Table VIII): 81.2% | inhibition at 0.002 mg ([3]; 0.5 h, 2 micrograms, Table VIII): 88.5% | inhibition at 0.005 mg ([3]; 0.5 h, 5 micrograms, Table VIII): 88.9% | inhibition at 0.01 mg ([3]; 0.5 h, 10 micrograms, Table VIII, read-out: Average % Inhibition): 82% | Average % Inhibition (Friend Virus; 1 microgram): 18.4% | Average Spleen Weight (Friend Virus; 1 microgram): 0.8210 | Actual Spleen Weight (Friend Virus; 1 microgram): 0.9291 and 0.8017 and 0.7323 | Average % Inhibition (Friend Virus; 10 micrograms): 9.2% | Average Spleen Weight (Friend Virus; 10 micrograms): 0.8930 | Actual Spleen Weight (Friend Virus; 10 micrograms): 0.8387 and 0.8529 and 0.9874 | Average % Inhibition (Friend Virus; 50 micrograms): 3.2% | Average Spleen Weight (Friend Virus; 50 micrograms): 0.9407 | Actual Spleen Weight (Friend Virus; 50 micrograms): 0.9012 and 0.9969 and 0.9241 | Average % Inhibition (Friend Virus; 150 micrograms): 18.6% | Average Spleen Weight (Friend Virus; 150 micrograms): 0.8187 | Actual Spleen Weight (Friend Virus; 150 micrograms): 0.7921 and 0.8013 and 0.8626
